# From patent publication US20100173943A1, “INSECTICIDAL COMPOSITIONS WITH IMPROVED ACTION” (BAYER CROPSCIENCE AG, priority 2007, published 2010)
# Read-outs that look alike come from different tables or passages of the source.
# Tests used:
# [1] = tested on: green peach aphid (Myzus persicae); test: Myzus persicae test (MYZUPE); assay type: in vivo; conditions: for pest or weed control at 0.8 ppm / pest or weed control at 4 ppm: Myzus persicae, 144 h, read-out: Kill in % after 6 days a.i.; for pest or weed control at 4 ppm: 4 ppm a.i. alone
# Description: Myzus persicae Test (MYZUPE)
# (§1) Solvent: 7 parts by weight of dimethylformamide
# (§2) Emulsifier: 2 parts by weight of alkylaryl polyglycol ether
# (§3) To prepare an appropriate active ingredient formulation, 1 part by weight of active ingredient is mixed with the given amounts of solvent and emulsifier, and the concentrate is diluted with emulsifier-containing water to the desired concentration. In the case that addition of ammonium salts, penetrants, or ammonium salts and penetrants is required, they are pippetted in each case into the finished preparation solution after dilution in a concentration of 1000 ppm each.
# Pepper plants (Capsicum annuum) highly infested by the green peach aphid (Myzus persicaei) are treated by spraying with the active ingredient formulation in the desired concentration.
# After the desired time, the kill rate in % is determined. 100% means that all animals have been killed; 0% means that no animals have been killed.
# [2] = tested on: cotton aphid (Aphis gossypii); test: Aphis gossypii test (APHIGO spray treatment); assay type: in vivo
# Description: Aphis gossypii Test (APHIGO Spray Treatment)
# as §1, §2
# as §3, with “a ready-to-use” for “an appropriate”, “specified” for “given”, “emulsifier” for “emulsifier,”, “pipetted” for “pippetted”
# Cotton leaves (Gossypium hirsutum) highly infested by the cotton aphid (Aphis gossypii) are sprayed with an active ingredient formulation with the desired concentration.
# After the desired period, the kill rate in % is determined. 100% means that all aphids have been killed; 0% means that no aphids have been killed.
# [3] = 0.8 ppm a.i. + AMS and RME 1000 ppm each, pepper plants sprayed, 6 days
# [4] = 0.8 ppm a.i. + ammonium sulphate 1000 ppm, pepper plants sprayed, 6 days
# [5] = 0.8 ppm a.i. + rapeseed oil methyl ester 1000 ppm, pepper plants sprayed, 6 days
# [6] = 4 ppm a.i. + AMS and RME 1000 ppm each, pepper plants sprayed, 6 days
# [7] = 4 ppm a.i. + ammonium sulphate 1000 ppm, pepper plants sprayed, 6 days
# [8] = 4 ppm a.i. + rapeseed oil methyl ester 1000 ppm, pepper plants sprayed, 6 days
# [9] = 0.8 ppm a.i. alone, pepper plants sprayed, 6 days
# [10] = 0.8 ppm a.i. + AMS and RME 1000 ppm each, cotton leaves sprayed, 6 days
# [11] = 0.8 ppm a.i. + ammonium sulphate 1000 ppm, cotton leaves sprayed, 6 days
# [12] = 0.8 ppm a.i. + rapeseed oil methyl ester 1000 ppm, cotton leaves sprayed, 6 days
# [13] = Aphis gossypii, 144 h, 0.8 ppm a.i. alone, cotton leaves sprayed, 6 days, read-out: Kill in % after 6 days a.i.
SMILES,"Kill in % after 6 days +AMS + RME [1, 3] [%]","Kill in % after 6 days +AMS [1, 4] [%]","Kill in % after 6 days +RME [1, 5] [%]","Kill in % after 6 days +AMS + RME [1, 6] [%]","Kill in % after 6 days +AMS [1, 7] [%]","Kill in % after 6 days +RME [1, 8] [%]","pest or weed control at 0.8 ppm [1, 9] [%]","pest or weed control at 4 ppm ([1]; pepper plants sprayed, 6 days) [%]","Kill in % after 6 days +AMS + RME [2, 10] [%]","Kill in % after 6 days +AMS [2, 11] [%]","Kill in % after 6 days +RME [2, 12] [%]","pest or weed control at 0.8 ppm [2, 13] [%]",also measured
"O=C1C=C(N(CCF)Cc2ccc(Br)nc2)CO1 [Compound I-1, 4-{[(6-bromopyrid-3-yl)methyl](2-fluoroethyl)amino}furan-2(5H)-one]",35,0,25,99,95,99,0,35,95,20,50,25,
O=C1C=C(N(Cc2ccc(Br)nc2)CC(F)F)CO1 [Compound I-2],30,50,98,,,,0,,15,98,90,15,
"O=C1C=C(N(Cc2ccc(F)nc2)CC(F)F)CO1 [Compound I-3, 4-{[(6-fluoropyrid-3-yl)methyl](2,2-difluoroethyl)amino}furan-2(5H)-one]",,,,100,80,85,,0,90,15,35,0,
"O=C1C=C(N(CCF)Cc2cnc(Cl)s2)CO1 [Compound I-4, 4-{[(2-chloro-1,3-thiazol-5-yl)methyl](2-fluoroethyl)amino}furan-2(5H)-one]",,,,100,80,90,,15,,,,,"Kill in % after 6 days +AMS + RME ([2]; 4 ppm a.i. + AMS and RME 1000 ppm each, cotton leaves sprayed, 6 days): 85%; Kill in % after 6 days +AMS ([2]; 4 ppm a.i. + ammonium sulphate 1000 ppm, cotton leaves sprayed, 6 days): 20%; Kill in % after 6 days +RME ([2]; 4 ppm a.i. + rapeseed oil methyl ester 1000 ppm, cotton leaves sprayed, 6 days): 65%; pest or weed control at 4 ppm ([2]; Aphis gossypii, 144 h, 4 ppm a.i. alone, cotton leaves sprayed, 6 days, read-out: Kill in % after 6 days a.i.): 20%"
"O=C1C=C(N(CCF)Cc2ccc(Cl)nc2)CO1 [Compound I-6, 4-{[(6-chloropyrid-3-yl)methyl](2-fluoroethyl)amino}furan-2(5H)-one]",,,,100,85,100,,60,70,55,80,45,"Kill in % after 6 days +AMS + RME ([2]; 0.16 ppm a.i. + AMS and RME 1000 ppm each, cotton leaves sprayed, 6 days): 40%; Kill in % after 6 days +AMS ([2]; 0.16 ppm a.i. + ammonium sulphate 1000 ppm, cotton leaves sprayed, 6 days): 0%; Kill in % after 6 days +RME ([2]; 0.16 ppm a.i. + rapeseed oil methyl ester 1000 ppm, cotton leaves sprayed, 6 days): 25%; pest or weed control at 0.16 ppm ([2]; Aphis gossypii, 144 h, 0.16 ppm a.i. alone, cotton leaves sprayed, 6 days, read-out: Kill in % after 6 days a.i.): 0%"
"O=C1C=C(N(Cc2ccc(Cl)nc2)CC(F)F)CO1 [Compound I-7, 4-{[(6-chloropyrid-3-yl)methyl](2,2-difluoroethyl)amino}furan-2(5H)-one]",90,45,80,,,,,,80,60,70,,"pest or weed control at 0.8 ppm [1]: 55%; pest or weed control at 0.8 ppm ([2]; Aphis gossypii, 144 h, read-out: Kill in % after 6 days a.i.): 60%"
"CN(Cc1cnc(Cl)c(F)c1)C1=CC(=O)OC1 [Compound I-8, 4-{[(6-chloro-5-fluoropyrid-3-yl)methyl](methyl)amino}furan-2(5H)-one]",95,50,95,,,,40,,75,30,60,20,
"O=C1C=C(N(Cc2cnc(Cl)c(Cl)c2)C2CC2)CO1 [Compound I-9, 4-{[(5,6-dichloropyrid-3-yl)methyl](cyclopropyl)amino}furan-2(5H)-one]",,,,70,15,60,,0,30,0,15,0,
